Results taken from ChEMBL document CHEMBL5329192, “Synthesis, biological activities, and future perspectives of steroidal monocyclic pyridines” (RSC Med Chem, 2023).

Tests used:
[1] = test system: MCF7; test: Antiproliferative activity against human MCF7 cells assessed as reduction in cell growth incubated for 48 hrs by MTT assay; format: functional, cell-based; details: MCF7, 48 h
[2] = test system: SK-OV-3; test: Antiproliferative activity against human SK-OV-3 cells assessed as reduction in cell growth incubated for 48 hrs by MTT assay; format: functional, cell-based; details: SK-OV-3, 48 h
[3] = test system: HeLa; test: Antiproliferative activity against human HeLa cells assessed as reduction in cell growth incubated for 48 hrs by MTT assay; format: functional, cell-based
[4] = test system: HepG2; test: Antiproliferative activity against human HepG2 cells assessed as reduction in cell growth incubated for 48 hrs by MTT assay; format: functional, cell-based; details: HepG2, 48 h
[5] = Cytotoxicity against human HEp-2 cells assessed as reduction in cell viability incubated for 48 hrs by MTT assay; format: toxicity, cell-based
[6] = test system: ECa-109 cell line; test: Cytotoxicity against human Eca-109 cells assessed as reduction in cell viability incubated for 72 hrs by MTT assay; format: functional, cell-based; details: ECa-109, 72 h
[7] = test system: MGC-803; test: Cytotoxicity against human MGC-803 cells assessed as reduction in cell viability incubated for 72 hrs by MTT assay; format: functional, cell-based; details: MGC-803, 72 h
[8] = test system: PC-3; test: Cytotoxicity against human PC-3 cells assessed as reduction in cell viability incubated for 72 hrs by MTT assay; format: functional, cell-based; details: PC-3, 72 h
[9] = test system: MCF7; test: Cytotoxicity against human MCF7 cells assessed as reduction in cell viability incubated for 72 hrs by MTT assay; format: functional, cell-based; details: MCF7, 72 h
[10] = test system: A549; test: Cytotoxicity against human A549 cells assessed as reduction in cell viability incubated for 72 hrs by MTT assay; format: functional, cell-based; details: A549, 72 h
[11] = Acute toxicity in ip dosed albino rat administered twice daily for 14 days; format: organism-based; details: in vivo, time 14 day
[12] = test system: Rattus norvegicus; test: Anti-androgen activity against albino rat assessed as mass gain of prostate gland at 0.1 mg/kg, sc administered for 7 days; format: functional; details: time 7 day
[13] = species: Rattus norvegicus; test: Ratio of anti-anabolic activity against albino rat assessed as reduction in mass of levator ani-muscle to anti-androgenic activity against albino rat assessed as mass gain of prostate gland; format: functional

Compound	IC50 [1] [µM]	IC50 [2] [µM]	IC50 [3] [µM]	IC50 [4] [µM]	IC50 [6] [µM]	IC50 [7] [µM]	IC50 [8] [µM]	IC50 [9] [µM]	IC50 [10] [µM]	other results
C[C@]12CC[C@H]3[C@@H](CC=C4C[C@@H](O)CC[C@@]43C)[C@@H]1CC[C@@H]2c1cc(-c2cccc(Br)c2)c(C#N)c(N)n1	28.9	17.7	46.5	41.2						
CCOc1ccc(-c2cc([C@H]3CC[C@H]4[C@@H]5CC=C6C[C@@H](O)CC[C@]6(C)[C@H]5CC[C@]34C)nc(N)c2C#N)cc1	31.2	28.3	26.7	26.7						
COc1ccc(-c2cc([C@H]3CC[C@H]4[C@@H]5CC=C6C[C@@H](OC(C)=O)CC[C@]6(C)[C@H]5CC[C@]34C)nc(N)c2C#N)cc1										CC50 at 48 h [5]: > 400 µM
COc1cccc(-c2cc([C@H]3CC[C@H]4[C@@H]5CC=C6C[C@@H](O)CC[C@]6(C)[C@H]5CC[C@]34C)nc(N)c2C#N)c1					> 64	> 64	7.5	27.4	> 64	
CC(=O)O[C@H]1CC[C@@]2(C)C(=CC[C@H]3[C@@H]4CC[C@H](c5cc(-c6c(F)cccc6F)c(C#N)c(N)n5)[C@@]4(C)CC[C@@H]32)C1										CC50 at 48 h [5]: 374 µM
C[C@]12CC[C@H]3[C@@H](CC=C4C[C@@H](O)CC[C@@]43C)[C@@H]1CC[C@@H]2c1cc(-c2ccccc2F)c(C#N)c(N)n1					17.8	9.4	3.2	10.1	28.8	
C[C@]12CC[C@H]3[C@@H](CC=C4C[C@@H](O)CC[C@@]43C)[C@@H]1CC[C@@H]2c1cc(-c2ccc(Cl)cc2)c(C#N)c(N)n1					48.9	55	15.7	26.2	43.9	
C[C@]12CC[C@H]3[C@@H](CC=C4C[C@@H](O)CC[C@@]43C)[C@@H]1CC[C@@H]2c1cc(-c2cccnc2)c(C#N)c(N)n1	30.2	92.2	105	75.5						
COc1ccccc1-c1cc([C@H]2CC[C@H]3[C@@H]4CC=C5C[C@@H](OC(C)=O)CC[C@]5(C)[C@H]4CC[C@]23C)nc(N)c1C#N										CC50 at 48 h [5]: 299 µM
C[C@]12CC[C@H]3[C@@H](CC=C4C[C@@H](O)CC[C@@]43C)[C@@H]1CC[C@@H]2c1cc(-c2ccccc2Br)c(C#N)c(N)n1	33.9	11.2	18.6	28.4						
CC(=O)O[C@H]1CC[C@@]2(C)C(=CC[C@H]3[C@@H]4CC[C@H](c5cc(-c6cccc(Cl)c6)c(C#N)c(N)n5)[C@@]4(C)CC[C@@H]32)C1										CC50 at 48 h [5]: 181 µM
C[C@]12CC[C@H]3[C@@H](CC=C4C[C@@H](O)CC[C@@]43C)[C@@H]1CC[C@@H]2c1cc(-c2ccc(Br)cc2)c(C#N)c(N)n1	12	7.66	12.2	15.2						
COc1ccc(-c2cc([C@H]3CC[C@H]4[C@@H]5CC=C6C[C@@H](O)CC[C@]6(C)[C@H]5CC[C@]34C)nc(N)c2C#N)cc1O	17	17.3	15	50.2						
C[C@]12CC[C@H]3[C@@H](CC=C4C[C@@H](O)CC[C@@]43C)[C@@H]1CC[C@@H]2c1cc(-c2cccc(OCc3ccccc3)c2)c(C#N)c(N)n1	41.1	21.8	22	21.5						
C[C@]12CC[C@H]3[C@@H](CC=C4C[C@@H](O)CC[C@@]43C)[C@@H]1CC[C@@H]2c1cc(-c2ccco2)c(C#N)c(N)n1	18.8	13.9	16.3	25.8						
C[C@]12CC[C@H]3[C@@H](CC=C4C[C@@H](O)CC[C@@]43C)[C@@H]1CC[C@@H]2c1cc(-c2ccc(OCc3ccccc3)cc2)c(C#N)c(N)n1	19	26.1	63.2	15.9						
CC(=O)O[C@H]1CC[C@@]2(C)C(=CC[C@H]3[C@@H]4CC[C@H](c5cc(-c6ccccc6)c(C#N)c(N)n5)[C@@]4(C)CC[C@@H]32)C1										CC50 at 48 h [5]: 227 µM
C[C@]12CC[C@H]3[C@@H](CC=C4C[C@@H](O)CC[C@@]43C)[C@@H]1CC[C@@H]2c1cc(-c2ccc(F)c(Br)c2)c(C#N)c(N)n1					> 64	> 64	5.9	37.3	56.2	

Compound	IC50 [1] [µM]	IC50 [2] [µM]	IC50 [3] [µM]	IC50 [4] [µM]	IC50 [6] [µM]	IC50 [7] [µM]	IC50 [8] [µM]	IC50 [9] [µM]	IC50 [10] [µM]	other results
COc1cccc(-c2cc([C@H]3CC[C@H]4[C@@H]5CC=C6C[C@@H](OC(C)=O)CC[C@]6(C)[C@H]5CC[C@]34C)nc(N)c2C#N)c1										CC50 at 48 h [5]: 160 µM
C[C@]12CC[C@H]3[C@@H](CC=C4C[C@@H](O)CC[C@@]43C)[C@@H]1CC[C@@H]2c1cc(-c2ccccc2Cl)c(C#N)c(N)n1					30.1	8.4	3.7	18.8	33.3	
C[C@]12CC[C@H]3[C@@H](CC=C4C[C@@H](O)CC[C@@]43C)[C@@H]1CC[C@@H]2c1cc(-c2c(F)cccc2F)c(C#N)c(N)n1					> 64	8.8	2	11.6	17.3	
COc1ccc(-c2cc([C@H]3CC[C@H]4[C@@H]5CC=C6C[C@@H](O)CC[C@]6(C)[C@H]5CC[C@]34C)nc(N)c2C#N)cc1	101	32.5	40.3	34.8	> 64	57.8	5.7	51.1	> 64	
C[C@]12CC[C@H]3[C@@H](CC=C4C[C@@H](O)CC[C@@]43C)[C@@H]1CC[C@@H]2c1cc(-c2ccc(OCc3ccccc3)c(OCc3ccccc3)c2OCc2ccccc2)c(C#N)c(N)n1	105	33.9	38.9	41.4						
CC(=O)O[C@H]1CC[C@@]2(C)C(=CC[C@H]3[C@@H]4CC[C@H](c5cc(-c6ccc(Cl)cc6)c(C#N)c(N)n5)[C@@]4(C)CC[C@@H]32)C1										CC50 at 48 h [5]: 252 µM
COc1ccccc1-c1cc([C@H]2CC[C@H]3[C@@H]4CC=C5C[C@@H](O)CC[C@]5(C)[C@H]4CC[C@]23C)nc(N)c1C#N					19.7	17	8	45.2	20.7	
CC(=O)O[C@H]1CC[C@@]2(C)C(=CC[C@H]3[C@@H]4CC[C@H](c5cc(-c6ccc(C#N)cc6)c(C#N)c(N)n5)[C@@]4(C)CC[C@@H]32)C1										CC50 at 48 h [5]: 39.3 µM
C[C@]12CC[C@H]3[C@@H](CC=C4C[C@@H](O)CC[C@@]43C)[C@@H]1CC[C@@H]2c1cc(-c2ccncc2)c(C#N)c(N)n1	47.8	18.9	73.3	103						
C[C@]12CC[C@H]3[C@@H](CC=C4C[C@@H](O)CC[C@@]43C)[C@@H]1CC[C@@H]2c1cc(-c2cccc(O)c2)c(C#N)c(N)n1	6.28	7.02	7.36	13.8						
C[C@]12CC[C@H](O)C[C@@H]1CC[C@@H]1[C@@H]2CC[C@]2(C)c3c(c(-c4ccccc4)[nH]c(=O)c3C#N)C[C@@H]12										LD50 at 336 h [11]: 4920 mg/kg; Activity [12]: 0.234 g; Ratio [13]: 11.3
C[C@]12CC[C@H]3[C@@H](CC=C4C[C@@H](O)CC[C@@]43C)[C@@H]1CC[C@@H]2c1cc(-c2ccccc2)c(C#N)c(N)n1	15.5	13.1	14.6	23.8	> 64	10.9	3.2	16	43.2	
COc1ccc(-c2cc([C@H]3CC[C@H]4[C@@H]5CC=C6C[C@@H](O)CC[C@]6(C)[C@H]5CC[C@]34C)nc(N)c2C#N)cc1OC	107	29.5	107	55.4						
C[C@]12CC[C@H]3[C@@H](CC=C4C[C@@H](O)CC[C@@]43C)[C@@H]1CC[C@@H]2c1cc(-c2ccc(F)cc2F)c(C#N)c(N)n1					58	22.7	3.5	30.3	> 64	
C[C@]12CC[C@H]3[C@@H](CC=C4C[C@@H](O)CC[C@@]43C)[C@@H]1CC[C@@H]2c1cc(-c2ccnc(Br)c2)c(C#N)c(N)n1					22.3	19.7	7	> 64	43.6	
CC(=O)O[C@H]1CC[C@@]2(C)C(=CC[C@H]3[C@@H]4CC[C@H](c5cc(-c6ccc(F)cc6F)c(C#N)c(N)n5)[C@@]4(C)CC[C@@H]32)C1										CC50 at 48 h [5]: 174 µM
C[C@]12CC[C@H]3[C@@H](CC=C4C[C@@H](O)CC[C@@]43C)[C@@H]1CC[C@@H]2c1cc(-c2cccc(Cl)c2)c(C#N)c(N)n1					> 64	> 64	9.7	29	30.3	
